Experimental data reported in ChEMBL document CHEMBL1126214, “Muscarinic agonist SAR of azaspirodioxolanes” (Bioorg Med Chem Lett, 1992).

Legend:
[1] = target: T1, Muscarinic acetylcholine receptor M1 (Rattus norvegicus, UniProt P08482); assay: In vitro 100 nM cortex affinity to displace [3H]- -CD providing a measure of muscarinic m1 receptor agonist affinity
T1 sequence (P08482 whole entry): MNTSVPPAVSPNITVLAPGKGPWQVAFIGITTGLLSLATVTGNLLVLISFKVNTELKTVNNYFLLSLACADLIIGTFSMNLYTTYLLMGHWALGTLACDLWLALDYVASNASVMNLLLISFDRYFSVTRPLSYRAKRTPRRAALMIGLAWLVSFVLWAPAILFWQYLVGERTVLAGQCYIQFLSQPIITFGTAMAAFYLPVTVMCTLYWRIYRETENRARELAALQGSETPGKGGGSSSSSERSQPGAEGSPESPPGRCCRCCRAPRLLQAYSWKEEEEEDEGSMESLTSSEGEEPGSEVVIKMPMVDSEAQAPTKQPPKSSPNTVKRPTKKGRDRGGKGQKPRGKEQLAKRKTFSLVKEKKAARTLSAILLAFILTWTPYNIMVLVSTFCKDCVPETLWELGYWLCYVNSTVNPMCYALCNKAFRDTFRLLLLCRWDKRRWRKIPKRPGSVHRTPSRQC

[2] = target: T1, Muscarinic acetylcholine receptor M1; assay: In vitro 100 nM cortex affinity to displace [3H]- -pirenzepine providing a measure of muscarinic m1 receptor antagonist affinity
[3] = target: T2, Muscarinic acetylcholine receptor M1 (Rattus norvegicus) (UniProt P08482); details: Ileum
T2 sequence (whole entry): T1 sequence (P08482 whole entry)

[4] = target: T2, Muscarinic acetylcholine receptor M1 (Rattus norvegicus)
[5] = target: T2, Muscarinic acetylcholine receptor M1 (Rattus norvegicus); assay: Compound was tested in vitro for its muscarinic agonist potency in the ganglion model as a functional measure of central muscarinic m1 receptor activity
[6] = target: T2, Muscarinic acetylcholine receptor M1 (Rattus norvegicus); assay: (§1) Compound was tested in vitro for its muscarinic m1 receptor agonist potency in the ileum model as a functional measure of peripheral muscarinic m1 receptor activity; type: tissue-based
[7] = target: T1, Muscarinic acetylcholine receptor M1; assay: as §1; type: tissue-based; details: read-out: pA2 (converted)
[8] = target: T1, Muscarinic acetylcholine receptor M1; assay: Compound was tested in vitro for its efficacy in the ileum model as a functional measure of peripheral muscarinic m1 receptor activity; type: tissue-based; details: read-out: pA2 (converted)

Ki [1] [nM] | Ki [2] [nM] | pD2 [4] | pD2 [6] | Kb [8] [nM] | SMILES | pD2 [3] | pD2 [5] | Kb [7] [nM]
530 | 2100 | 5 |  |  | CC1SCC2(CCN(C)CC2)S1 (centres undefined) | 4.9 |  | 
105 | 430 | 6.1 |  |  | C[C@H]1OC2(CS1)CN1CCC2CC1 (some centres undefined) | 4.9 |  | 
185 | 2650 | 6.1 |  |  | CC1OC2(CCN(C)CC2)CS1 (centres undefined) | 6 |  | 
745 | 1320 | 5.5 |  |  | CCC1OCC2(CCN(C)CC2)O1 (centres undefined) | 5 |  | 
870 | > 10000 | 5.5 |  |  | COC1OCC2(CCN(C)CC2)O1 (centres undefined) | 4.7 |  | 
210 | 5000 | 6.1 |  |  | CC1OCC2(CC[N+](C)(C)CC2)O1 (centres undefined) | 5.2 |  | 
> 10000 | > 10000 | < 4 | < 4 |  | CN1CCC2(CC1)COC(C)(C)O2 |  |  | 
87 | 765 | 6.7 |  |  | CCC1C(=O)CC2(CCN(C)CC2)C1=O (centres undefined) | 6.1 |  | 
8.1 | 0.6 |  |  | 6.31 | CN1CCC2(CC1)COC(c1ccccc1)(c1ccccc1)O2 |  |  | 10
720 | 3160 | 5.6 |  |  | CC1OCC2(CCN(C)CC2)S1 (centres undefined) | 5.1 |  | 
175 | 4050 | 6.2 |  |  | CC1C(=O)CC2(CCN(C)CC2)C1=O (centres undefined) | 5.5 |  | 
1200 | > 10000 |  |  |  | CN1CCC2(CC1)COCO2 | 4.6 | 4.6 | 
515 | 1250 | 5.7 |  |  | C[C@@H]1OC2(CS1)CN1CCC2CC1 (some centres undefined) | 5.4 |  | 
 |  |  |  |  | C[C@@H]1OCC2(CCN(C)C2)O1 (stereo in doubt; trans) [listing 2 of 2 here] | 4.5 |  | 
145 | > 10000 | 5.9 |  |  | CC1OCC2(CCNCC2)O1 (centres undefined) | 5.1 |  | 

SMILES | Ki [1] [nM] | Ki [2] [nM] | pD2 [4] | pD2 [6] | Kb [8] [nM] | pD2 [3] | pD2 [5] | Kb [7] [nM]
C[C@@H]1OCC2(CN3CCC2CC3)O1 (some centres undefined) | 90 | 1570 | 6 |  |  | 4.8 |  | 
C[C@@H]1OCC2(CCN(C)C2)O1 (stereo in doubt; cis) [listing 1 of 2 here] |  |  | 5.6 |  |  | 5.2 |  | 
C[C@@H]1OCC2(CCN(C)C2)O1 (stereo in doubt; cis) [listing 2 of 2 here] | 550 | > 10000 |  |  |  |  |  | 
CC1OC[C@@]2(CN3CCC2C3)O1 (some centres undefined) | 30 | 1950 |  |  |  | 5.9 | 6.5 | 
C[C@@H]1O[C@H](C[N+](C)(C)C)C[C@H]1O |  |  | 7.4 |  |  | 6.8 |  | 
CN1CCC2(CC1)COC(c1ccccc1)O2 (centres undefined) | 2800 | 620 |  |  |  |  |  | 5010
C[C@@H]1OCC2(CN3CCC2C3)O1 (some centres undefined) | 180 | 6400 | 5.7 |  |  | 5.5 |  | 
C#CC1OCC2(CCN(C)CC2)O1 (centres undefined) | 295 | 3000 | 5.9 |  |  | 5.2 |  | 
C[C@H]1OC2(CCN(C)C2)CS1 (some centres undefined) | 585 | 6700 | 5.7 |  |  | 5.2 |  | 
C[C@@H]1OCC2(CCN(C)C2)O1 (stereo in doubt; trans) [listing 1 of 2 here] | 1750 | > 10000 |  |  |  |  |  | 
C[C@@H]1OCC2(CCN(C)C2)S1 (some centres undefined) | 9150 | > 10000 |  |  |  |  |  | 
CC[C@H](C)[C@@H]1NC(=O)[C@H](CCCN=C(N)N)NC(=O)[C@@H](CC(=O)O)NC(=O)[C@H]([C@@H](C)CC)NC(=O)[C@@H](CCCN=C(N)N)NC(=O)CNC(=O)CNC(=O)[C@@H](Cc2ccccc2)NC(=O)[C@H](C)NC(=O)[C@@H](NC(=O)[C@H](CO)NC(=O)[C@@H](N)CO)CSSC[C@@H](C(=O)N2C[C@H](C(=O)N[C@H](CCCN=C(N)N)C(=O)O)Cc3ccccc32)NC1=O |  |  | < 4 |  |  | 4.1 |  | 
C[C@H]1OC[C@@H](C[N+](C)(C)C)O1 | 6.4 | 2100 | 7.8 |  |  | 7.5 |  | 
CC1OCC2(CCCN(C)C2)O1 (centres undefined) |  |  | < 4 |  |  | < 4 |  | 
C[C@H]1OCC2(CN3CCC2C3)O1 (some centres undefined) | 1850 | > 10000 | 4.4 |  |  | 4.1 |  | 
CN1CCC2(CC1)COC(C(Cl)(Cl)Cl)O2 (centres undefined) | 960 | 200 |  |  |  |  |  | 
